# Experimental data from patent US10947273B2, “Peptides of use in the preventive and curative treatment of alopecia” (Institut Europeen de Biologie Cellulaire, priority 2015, dated 2021).
# Entries after “also recorded” stand apart in the source; their conditions may differ. The star is where a group is joined. Palmitoyl = CCCCCCCCCCCCCCCC(=O)*; Chol = cholesterol residue
# Tests used:
# HGF [1] = experiment: qPCR (TLDA) HGF gene expression in HFDPC; assay type: cell-based, human; set-up: dose or concentration left out as unconfirmed; settings: peptide, 24 hours, relative to untreated controls
# Experimental: (§1) RNA was extracted and purified from cell pellets using the RNA XS Kit (Macherey-Nagel). RNA quantification was carried out with a NanoDrop device and sample quality was verified on a Bioanalyzer with RNA 6000 Nano chips (Agilent). cDNA was synthesized from 300 ng of RNA using the High-Capacity cDNA Reverse Transcription Kit (LifeTech). Quality-control qPCR assays of the cDNA were carried out in microplates on the reference gene, GAPDH, and the SIRT1 gene.
# (§2) Final qPCR experiments were carried out in a 1 μl volume on microfluidic cards (TaqMan Low Density Arrays, LifeTech) and the ABI 7900HT qPCR device. Amplification reactions were performed in duplicate using 1 to 2 ng of cDNA per qPCR reaction and TaqMan Universal Master Mix II (LifeTech).
# (§3) Ct values were obtained using the RQ Manager software. For analyses of qPCR results, Ct values were limited to 35 cycles and the duplicate assays are averaged. The GeneXPro software was used for the studies of stability and of selection of the best reference genes. Expression variations are calculated by the relative quantification method and are expressed as percent increase in expression of the gene of interest relative to the untreated controls.
# NGF = NGF secretion by NHDF (ELISA/BioPlex); assay type: cell-based, human; settings: 48h
# Experimental: (§4) NHDF, HFDPC, HHFK and NHEM cells were treated with the peptides studied for 48h. At the end of the treatment, cell supernatants were collected and stored at −80° C. until analysis. The factors of interest secreted into the supernatant were assayed by ELISA® (R&D) or BioPlex® (BioRad®).
# (§5) The results are expressed as percent increase in the concentration of the factor present in the supernatant relative to the untreated control. The intensity of the effect varies as a function of the concentration of the peptide studied and of the cell type treated.
# SCF = SCF secretion by NHDF (ELISA/BioPlex); assay type: cell-based, human; settings: 10^−7 M, 48h
# Experimental: as §4, §5
# HGF [2] = experiment: HGF secretion by NHDF (ELISA/BioPlex); assay type: cell-based, human; settings: 48h
# Experimental: as §4, §5
# [3] = test system: immortalized human skin keratinocytes (HaCaT); experiment: CellTiter-Blue proliferation of HaCaT; assay type: cell-based; settings: 10^−5M, 72 hours
# Experimental: Cell proliferation and viability were evaluated in vitro with a kit from Promega, CellTiter-Blue® Cell Viability Assay, for estimating the number of living cells present in the culture. This kit is based on detection, by measurement of fluorescence, of conversion of the dye, resazurin, into a fluorescent product (resorufin) by living and thus metabolically active cells.
# The effect of the peptides tested, (1) and (9), at 4 different concentrations (10^−5, 10^−7, 10^−9 and 10^−11M) was examined on five cell types: immortalized human skin keratinocytes (HaCaT), human hair follicular keratinocytes (HHFK), normal human dermal fibroblasts (NHDF), hair follicle dermal papilla cells (HFDPC), and normal human epidermal melanocytes (NHEM) exposed to the molecule studied for 72 hours.
# KGF [4] = experiment: qPCR (TLDA) KGF gene expression in HFDPC; assay type: cell-based, human; set-up: dose or concentration left out as unconfirmed; settings: peptide, 24 hours, relative to untreated controls
# Experimental: as §1, §2, §3
# IGF1 = experiment: qPCR (TLDA) IGF1 gene expression in HFDPC; assay type: cell-based, human; settings: relative to untreated controls
# Experimental: (§6) To study the effect of 9 peptides on these genes, HFDPC were treated for 24 hours with the molecules tested at 10^−7M and 10^−9M concentrations.
# as §1, §2, §3
# BMP2 [5] = experiment: qPCR (TLDA) BMP2 gene expression in HFDPC; assay type: cell-based, human; settings: peptide 10^−7, 24 hours, relative to untreated controls
# Experimental: as §6, §1, §2, §3
# [6] = test system: genes whose expression is reduced in subjects characterized by alopecia; experiment: qPCR (TLDA) overall statement, genes involved in alopecia, HFDPC; assay type: cell-based, human; settings: summary of Table 1
# Experimental: as §6, §1, §2, §3
# PDGF = PDGF secretion by HFDPC (ELISA/BioPlex); assay type: cell-based, human; settings: 48h
# Experimental: as §4, §5
# KGF [7] = experiment: KGF secretion by HFDPC (ELISA/BioPlex); assay type: cell-based, human; settings: 48h
# Experimental: as §4, §5
# VEGF [8] = experiment: VEGF secretion by HFDPC (ELISA/BioPlex); assay type: cell-based, human; settings: 48h
# Experimental: as §4, §5
# BMP2 [9] = experiment: BMP2 secretion by HFDPC (ELISA/BioPlex); assay type: cell-based, human; settings: 10^−9 M, 48h
# Experimental: as §4, §5
# VEGF [10] = experiment: VEGF secretion by NHDF (ELISA/BioPlex); assay type: cell-based, human; settings: 48h
# Experimental: as §4, §5
# [11] = test system: microdissected hairs from scalp surgery specimens; experiment: Growth of isolated hair ex vivo; assay type: cell-based, human; settings: for Growth at D 11/D 12 Vs Control: ex vivo isolated hair
# Experimental: (§7) This study was carried out on microdissected hairs from scalp surgery specimens from women aged 52 to 71 years. Isolated hairs were kept alive for 11 to 12 days in Williams medium, under conventional cell culture conditions (37° C., 5% CO2). […]
# (§8) To evaluate the effect of (1), (6) or (9) on hair growth, the hairs were photographed and their lengths measured using image analysis software. Thus, the growth of the hairs between D0 and D11/D12 could be calculated and compared with that of the untreated control. At the end of the treatments (D11 or D12), the hairs were collected and frozen or fixed for immunolabeling and histological staining.
# follicular markers = experiment: Follicular markers in isolated hair ex vivo (immunolabeling); assay type: cell-based, human; settings: end of treatment D11 or D12, value = marker increased
# Experimental: as §7, §8
# HGF [12] = experiment: HGF secretion by HFDPC (ELISA/BioPlex); assay type: cell-based, human; settings: 48h
# Experimental: as §4, §5
# VEGF [13] = experiment: qPCR (TLDA) VEGF gene expression in HFDPC; assay type: cell-based, human; settings: peptide 10^−5 M (table title), 24 hours, relative to untreated controls
# Experimental: as §1, §2, §3
# HGF [14] = experiment: HGF secretion by HHFK (ELISA/BioPlex); assay type: cell-based, human; settings: 10^−7 M, 48h
# Experimental: as §4, §5
# VEGF [15] = experiment: VEGF secretion by NHEM (ELISA/BioPlex); assay type: cell-based, human; settings: 10^−7 M, 48h
# Experimental: as §4, §5
# HGF [16] = experiment: HGF secretion by NHEM (ELISA/BioPlex); assay type: cell-based, human; settings: 10^−7 M, 48h
# Experimental: as §4, §5
substance,measurement,setting,value
Chol-Ala-Arg-Pro-Ala-Lys-NH2 (Chol-ARPAK-NH2) [(7)],% stimulation HGF gene expression,HGF [1],49%
same,"NGF secretion, percent increase relative to untreated control",NGF; 10^−7 M,NGF 11%
same,"SCF secretion, percent increase relative to untreated control",SCF,SCF 10%
same,"HGF secretion, percent increase relative to untreated control",HGF [2]; 10^−7 M,HGF 104%
H-Ala-Arg-Pro-Ala-Lys-OH (H-ARPAK-OH) [Peptide (1)],stimulation of proliferation of HaCaT,[3],+15%
same,% stimulation KGF gene expression,KGF [4],14%
same,% stimulation IGF1 gene expression,"IGF1; peptide 10^−7, 24 hours",32% (10^−7)
same,% stimulation BMP2 gene expression,BMP2 [5],26% (10^−7)
same,stimulation of genes whose expression is reduced in alopecia (in words),[6],stimulate several genes
same,"PDGF secretion, percent increase relative to untreated control",PDGF; 10^−7 M,PDGF 31%
same,"PDGF secretion, percent increase relative to untreated control",PDGF; 10^−9 M,PDGF 23%
same,"KGF secretion, percent increase relative to untreated control",KGF [7]; 10^−7 M,KGF 8%
same,"KGF secretion, percent increase relative to untreated control",KGF [7]; 10^−9 M,KGF 25%
same,"VEGF secretion, percent increase relative to untreated control",VEGF [8]; 10^−7 M,VEGF 9%
same,"VEGF secretion, percent increase relative to untreated control",VEGF [8]; 10^−9 M,VEGF 4%
same,"BMP2 secretion, percent increase relative to untreated control",BMP2 [9],BMP2 22%
same,"NGF secretion, percent increase relative to untreated control",NGF; 10^−9 M,NGF 13%
same,"VEGF secretion, percent increase relative to untreated control",VEGF [10]; 10^−7 M,VEGF 4%
same,"VEGF secretion, percent increase relative to untreated control",VEGF [10]; 10^−9 M,VEGF5%
same,"HGF secretion, percent increase relative to untreated control",HGF [2]; 10^−9 M,HGF 18%
same,Growth at D 11/D 12 Vs Control,[11]; 10^−1 M,No effect
same,Growth at D 11/D 12 Vs Control,[11]; 10^−9 M,+40%
same,growth increase compared with minoxidil sulphate,"[11]; peptide 10^−9M, minoxidil sulphate 10^−5 M",close to that obtained after treatment with minoxidil sulphate
same,hair growth after 11 to 12 days of treatment ex vivo (in words),[11]; summary of Table 3,stimulate hair growth
same,Follicular markers increased Vs Control,follicular markers; 10^−1 M,Coll IV; also recorded: Laminin-5
same,Follicular markers increased Vs Control,follicular markers; 10^−9 M,Coll IV and CD34
H-Arg-Pro-Ala-Lys-OH (H-RPAK-OH) [(8)],% stimulation KGF gene expression,KGF [4],14%
same,"HGF secretion, percent increase relative to untreated control",HGF [12]; 10^−5 M,HGF 26%
same,"HGF secretion, percent increase relative to untreated control",HGF [12]; 10^−7 M,HGF 129%
same,"HGF secretion, percent increase relative to untreated control",HGF [2]; 10^−5 M,HGF 8%
Palm-Ala-Arg-Ala-Ala-Lys-NH2 (Palmitoyl-ARAAK-NH2; SMILES CCCCCCCCCCCCCCCC(=O)N[C@@H](C)C(=O)N[C@@H](CCCNC(=N)N)C(=O)N[C@@H](C)C(=O)N[C@@H](C)C(=O)N[C@@H](CCCCN)C(N)=O) [(5)],% stimulation VEGF gene expression,VEGF [13],10%
same,% stimulation IGF1 gene expression,"IGF1; peptide 10^−7, 24 hours",29% (10^−7)
same,% stimulation IGF1 gene expression,"IGF1; peptide 10^−9, 24 hours",16% (10^−9)
same,stimulation of genes whose expression is reduced in alopecia (in words),[6],stimulate several genes
same,"PDGF secretion, percent increase relative to untreated control",PDGF; 10^−5 M,PDGF 39%
same,"PDGF secretion, percent increase relative to untreated control",PDGF; 10^−7 M,PDGF 55%
same,"NGF secretion, percent increase relative to untreated control",NGF; 10^−5 M,NGF 15%
same,"VEGF secretion, percent increase relative to untreated control",VEGF [10]; 10^−5 M,VEGF 12%
same,"HGF secretion, percent increase relative to untreated control",HGF [2]; 10^−7 M,HGF 21%
same,"HGF secretion, percent increase relative to untreated control",HGF [14],HGF 104%
same,"VEGF secretion, percent increase relative to untreated control",VEGF [15],VEGF 5%
same,"HGF secretion, percent increase relative to untreated control",HGF [16],HGF 8%
